The test deals with T1, human Keap1 kelch domain (amino acids Ala321-Thr609) (Homo sapiens, UniProt Q14145).
T1 construct: human Keap1 kelch domain (amino acids Ala321-Thr609)
Nature of the test: Keap1-Nrf2 peptide binding assay (fluorescence polarisation). To be noted: binding of Keap1 kelch domain (20 nM) to fluorescently labeled Nrf2 peptide (50 nM). As for the experimental part:
A fluorescence polarisation assay was used to measure binding of the human Keap1 kelch domain (amino acids Ala321-Thr609) to a fluorescently labeled peptide containing a Keap1 binding site of human Nrf2 (Alexa633-AFFAQLQLDEETGEFL; JPT Technologies, Berlin, Germany). Two microliters of test compound in reaction buffer (phosphate-buffered saline, 2 mM DL-dithiothreitol, 0.015 % (v/v) Brij-35) containing 6 % (v/v) DMSO were mixed with two microliters of the Keap1 kelch domain in reaction buffer in a black 384-well small volume microtiter plate and incubated at ambient temperature for 15 minutes. Thereafter, two microliters were added of the fluorescently labeled Nrf2 peptide in reaction buffer, and the mixture was incubated for a further 30 minutes at ambient temperature. Final concentrations of the Keap1 kelch domain and the fluorescently labeled Nrf2 peptide were 20 nM and 50 nM, respectively.
Fluorescence polarization (FP) was measured at excitation and emission wavelengths of 635 nm and 660 nm, respectively. Positive controls for binding (two microliters of reaction buffer containing 6 % (v/v) DMSO instead of test compound in the same buffer) and negative controls (as positive controls, but without Keap1 kelch domain) were included on each microtiter plate. Data were expressed as percent-inhibition values: percentinhibition = 100⋅(1-(|FPcompound-FPnegative controle|)/(|FPpositive controle-FPnegative controle|)) [formula]
IC50 values were determined by testing different compound concentrations and fitting the resulting percent-inhibition values to the following equation using XLFit4: percentinhibition = A + (B-A)/(1 + (((IC50)/([Compound])))^D) [formula]
Parameter A was set to zero, pre-fit values for parameters B and D were set to 100 and 1, respectively.
On the technique in general: Fluorescence polarisation rises when a labelled molecule tumbles more slowly, as on binding a larger partner.

Read-outs that look alike come from different tables or passages of the source.

One may read the IC50 as the midpoint of a concentration-inhibition curve.

T1 sequence (Q14145 321-609): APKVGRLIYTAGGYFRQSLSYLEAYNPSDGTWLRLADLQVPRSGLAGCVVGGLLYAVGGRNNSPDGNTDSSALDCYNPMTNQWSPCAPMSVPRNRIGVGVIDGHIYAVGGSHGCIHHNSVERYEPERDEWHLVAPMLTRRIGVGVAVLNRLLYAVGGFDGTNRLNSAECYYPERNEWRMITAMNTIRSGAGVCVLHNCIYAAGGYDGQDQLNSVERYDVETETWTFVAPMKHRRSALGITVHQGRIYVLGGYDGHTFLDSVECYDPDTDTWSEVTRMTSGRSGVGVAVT

With `CCCCCCCCn1nc(C)c(S(=O)(=O)Nc2ccc(-c3cc(C(=O)O)ccc3F)c3ncccc23)c1C` [Example 95, 3-[5-[(3,5-dimethyl-1-octyl-pyrazol-4-yl)sulfonylamino]-8-quinolyl]-4-fluorobenzoic acid], the IC50 (read-out: IC50) worked out at 2.2 µM.
On the same count and under the same terms, the result for `Cc1cc(S(=O)(=O)Nc2ccc(-c3cccc(C(=O)O)c3)c3ccccc23)c(Cl)cc1Cl` [Example 14, 3-[4-[(2,4-dichloro-5-methylphenyl)sulfonylamino]-1-naphthyl]benzoic acid] reads 3.8 µM; that for `COc1cc(C)ccc1S(=O)(=O)Nc1ccc(-c2cccc(C(=O)O)c2)c2ccccc12` [Example 18, 3-[4-[(2-methoxy-4-methylphenyl)sulfonylamino]-1-naphthyl]benzoic acid], 5.8 µM; that for `Cc1c(S(=O)(=O)Nc2ccc(-c3cc(C(=O)O)ccc3F)c3ncccc23)sc2ccc(Cl)cc12` [Example 93, 3-[5-[(5-chloro-3-methyl-benzothiophen-2-yl)sulfonylamino]-8-quinolyl]-4-fluoro-benzoic acid], 6.5 µM.
`Cc1ccc(S(=O)(=O)Nc2ccc(-c3cccc(C(=O)O)c3)c3ccccc23)c(Cl)n1` [Example 73, 3-[4-[(2-chloro-6-methyl-3-pyridyl)sulfonylamino]-1-naphthyl]benzoic acid]: the IC50 (read-out: IC50) is 7.7 µM.
For `Cc1ccc2c(NS(=O)(=O)c3c(C)c(C)cc(C)c3C)ccc(-c3cc(C(=O)O)ccc3F)c2n1` [Example 61, 4-fluoro-3-[2-methyl-5-[(2,3,5,6-tetramethylphenyl)sulfonylamino]-8-quinolyl]benzoic acid; 2,2,2-trifluoroacetic acid], for the setting “read-out: IC50”, the IC50 was 0.5 µM.
Turning to `Cc1ccc2c(NS(=O)(=O)c3c(C)c(C)cc(C)c3C)ccc(-c3cccc(C(=O)O)c3)c2n1` [Example 7, 3-[2-methyl-5-[(2,3,5,6-tetramethylphenyl)sulfonylamino]-8-quinolyl]benzoic acid], the IC50 (read-out: IC50) was determined as 1.1 µM.
In the case of `O=C(O)c1ccc(F)c(-c2ccc(NS(=O)(=O)c3ccc(Cl)c(C(F)(F)F)c3)c3ccccc23)c1` [Example 75, 3-[4-[[4-chloro-3-(trifluoromethyl)phenyl]sulfonylamino]-1-naphthyl]-4-fluoro-benzoic acid], under “read-out: IC50”, the half-maximal inhibitory concentration (IC50) came out at 4.4 µM.
Turning to `Cc1c(S(=O)(=O)Nc2ccc(-c3cc(C(=O)O)ccc3F)c3ccccc23)cnn1-c1ccccc1` [Example 77, 4-fluoro-3-[4-[(5-methyl-1-phenyl-pyrazol-4-yl)sulfonylamino]-1-naphthyl]benzoic acid], the IC50 (read-out: IC50) came out at 3.7 µM.
On to `O=C(O)c1cccc(-c2ccc(NS(=O)(=O)c3ccc4ncsc4c3)c3ccccc23)c1` [Example 44, 3-[4-(1,3-benzothiazol-6-ylsulfonylamino)-1-naphthyl]benzoic acid], for which the IC50 worked out at 3.8 µM.
On to `CCCCn1cc(S(=O)(=O)Nc2ccc(-c3cccc(C(=O)O)c3)c3ccccc23)c(C)n1` [Example 62, 3-[4-[(1-butyl-3-methyl-pyrazol-4-yl)sulfonylamino]-1-naphthyl]benzoic acid], for which the IC50 (read-out: IC50) amounted to 0.7 µM.
Turning to `Cc1nn(C)c(C)c1S(=O)(=O)Nc1ccc(-c2cc(C(=O)O)ccc2F)c2ccccc12` [Example 79, 4-fluoro-3-[4-[(1,3,5-trimethylpyrazol-4-yl)sulfonylamino]-1-naphthyl]benzoic acid], the IC50 (read-out: IC50) was 0.4 µM.
In turn, `Cc1cccc(Cl)c1S(=O)(=O)Nc1ccc(-c2cccc(C(=O)O)c2)c2ccccc12` [Example 21, 3-[4-[(2-chloro-6-methylphenyl)sulfonylamino]-1-naphthyl]benzoic acid] displayed an IC50 of 1.8 µM.
With `COc1ccc(F)c(S(=O)(=O)Nc2ccc(-c3cccc(C(=O)O)c3)c3ccccc23)c1` [Example 32, 3-[4-[(2-fluoro-5-methoxyphenyl)sulfonylamino]-1-naphthyl]benzoic acid], the IC50 (read-out: IC50) worked out at 3.3 µM.
On the same count and under the same terms, the result for `Cc1nc(-c2ccccc2)sc1S(=O)(=O)Nc1ccc(-c2cccc(C(=O)O)c2)c2ccccc12` [Example 39, 3-[4-[(4-methyl-2-phenyl-thiazol-5-yl)sulfonylamino]-1-naphthyl]benzoic acid] reads 2.8 µM; that for `Cc1c(S(=O)(=O)Nc2ccc(-c3cc(C(=O)O)ccc3F)c3ncccc23)sc2cccc(F)c12` [Example 94, 4-fluoro-3-[5-[(4-fluoro-3-methyl-benzothiophen-2-yl)sulfonylamino]-8-quinolyl]benzoic acid], 3 µM.
`Cc1ccc(Cl)cc1S(=O)(=O)Nc1ccc(-c2cc(C(=O)O)ccc2F)c2ccccc12` [Example 87, 3-[4-[(5-chloro-2-methylphenyl)sulfonylamino]-1-naphthyl]-4-fluorobenzoic acid] displayed a half-maximal inhibitory concentration (IC50) of 1 µM.
On the same count and under the same terms, in the case of `O=C(O)c1cccc(-c2ccc(NS(=O)(=O)c3cc(Cl)c(Cl)s3)c3ccccc23)c1` [Example 19, 3-[4-[(4,5-dichloro-2-thienyl)sulfonylamino]-1-naphthyl]benzoic acid] it was 7 µM.
`CCCCn1cc(S(=O)(=O)Nc2ccc(-c3cccc(C(=O)O)c3)c3nc(C)ccc23)c(C)n1` [Example 71, 3-[5-[(1-butyl-3-methyl-pyrazol-4-yl)sulfonylamino]-2-methyl-8-quinolyl]benzoic acid]: the IC50 (read-out: IC50) is 22 µM.
The same measure, in the same setting: the result for `O=C(O)c1cccc(-c2ccc(NS(=O)(=O)c3ccc4[nH]c(=O)sc4c3)c3ccccc23)c1` [Example 29, 3-[4-[(2-oxo-3H-1,3-benzothiazol-6-yl)sulfonylamino]-1-naphthyl]benzoic acid] reads 5.1 µM.
In turn, `O=C(O)c1cccc(-c2ccc(NS(=O)(=O)c3cc(Cl)c(F)cc3F)c3ccccc23)c1` [Example 40, 3-[4-[(5-chloro-2,4-difluorophenyl)sulfonylamino]-1-naphthyl]benzoic acid] displayed an IC50 of 4.4 µM.
For `COc1ccc(S(=O)(=O)Nc2ccc(-c3cc(C(=O)O)ccc3F)c3ccccc23)c(OC)c1` [Example 83, 3-[4-[(2,4-dimethoxyphenyl)sulfonylamino]-1-naphthyl]-4-fluoro-benzoic acid], under “read-out: IC50”, the IC50 was found to be 2.2 µM.
Same read-out and setting: in the case of `O=C(O)c1cccc(-c2ccc(NS(=O)(=O)c3ccc(N4CCCC4=O)cc3)c3ccccc23)c1` [Example 26, 3-[4-[[4-(2-oxopyrrolidin-1-yl)phenyl]sulfonylamino]-1-naphthyl]benzoic acid] it was 2.5 µM.
In turn, `O=C(O)c1cccc(-c2ccc(NS(=O)(=O)c3ccc(Cl)c(C(F)(F)F)c3)c3ccccc23)c1` [Example 37, [4-[[4-chloro-3-(trifluoromethyl)phenyl]sulfonylamino]-1-naphthyl]benzoic acid] registered an IC50 of 4 µM.
The compound `Cc1cc(NC(=O)c2ccccc2)ccc1S(=O)(=O)Nc1ccc(-c2cccc(C(=O)O)c2)c2ccccc12` [Example 47, 3-[4-[(4-benzamido-2-methylphenyl)sulfonylamino]-1-naphthyl]benzoic acid] gave a 50% inhibitory concentration (IC50) of 5 µM.
As to `CC(=O)Nc1ccc(C)c(S(=O)(=O)Nc2ccc(-c3cccc(C(=O)O)c3)c3ccccc23)c1` [Example 31, 3-[4-[(5-acetamido-2-methylphenyl)sulfonylamino]-1-naphthyl]benzoic acid], the IC50 (read-out: IC50) was found to be 3.2 µM.
Consider `Cc1nc(C)c(S(=O)(=O)Nc2ccc(-c3cc(C(=O)O)ccc3F)c3ccccc23)s1` [Example 80, 3-[4-[(2,4-dimethylthiazol-5-yl)sulfonylamino]-1-naphthyl]-4-fluorobenzoic acid], for which the IC50 (read-out: IC50) turned out to be 1.9 µM.
Regarding `Cc1nc(-c2ccc(C(F)(F)F)cc2)sc1S(=O)(=O)Nc1ccc(-c2cc(C(=O)O)ccc2F)c2ccccc12` [Example 9, 4-fluoro-3-[4-[[4-methyl-2-[4-(trifluoromethyl)phenyl]thiazol-5-yl]sulfonylamino]-1-naphthyl]benzoic acid], for the setting “read-out: IC50”, the IC50 was determined as 5.8 µM.
`O=C(O)c1cccc(-c2ccc(NS(=O)(=O)c3cc(F)cc(F)c3F)c3ccccc23)c1` [Example 42, 3-[4-[(2,3,5-trifluorophenyl)sulfonylamino]-1-naphthyl]benzoic acid] came in with a 50% inhibitory concentration (IC50) of 6.4 µM.
As for `O=C(O)c1ccc(F)c(-c2ccc(NS(=O)(=O)c3cc(Cl)ccc3Cl)c3ccccc23)c1` [Example 76, 3-[4-[(2,5-dichlorophenyl)sulfonylamino]-1-naphthyl]-4-fluoro-benzoic acid], under “read-out: IC50”, the IC50 amounted to 2.4 µM.
Take `CCCn1ncc(S(=O)(=O)Nc2ccc(-c3cccc(C(=O)O)c3)c3ccccc23)c1C` [Example 63, 3-[4-[(5-methyl-1-propyl-pyrazol-4-yl)sulfonylamino]-1-naphthyl]benzoic acid]: the IC50 (read-out: IC50) is 3.2 µM.
The same measure, in the same setting: the result for `Cc1nn(-c2ccccc2)c(C)c1S(=O)(=O)Nc1ccc(-c2cccc(C(=O)O)c2)c2ccccc12` [Example 50, 3-[4-[(3,5-dimethyl-1-phenyl-pyrazol-4-yl)sulfonylamino]-1-naphthyl]benzoic acid] reads 1.6 µM.
Regarding `Cc1nn(C)c(Cl)c1S(=O)(=O)Nc1ccc(-c2cc(C(=O)O)ccc2F)c2ccccc12` [Example 56, 3-[4-[(5-chloro-1,3-dimethyl-pyrazol-4-yl)sulfonylamino]-1-naphthyl]-4-fluorobenzoic acid], the IC50 (read-out: IC50) amounted to 0.3 µM.
